Target: T1, human TRPV4 (Homo sapiens, UniProt Q9HBA0)
T1 construct: host or cells: tetracycline-inducible Flp-In T-REx 293 cells
Assay: Hypotonicity-induced Ca2+ influx (Fluo-4, FDSS)
Type: cell-based
How it was run: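 Flp-In T-REx 293 cells with tetracycline-induced human TRPV4, loaded with Fluo-4 for 60 min at 25 °C. Compound added 5 min before hypotonic mannitol/CaCl2 solution. Ca2+ signal recorded for 4.5 min on FDSS.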

[1] = Flp-In T-REx 293 cells expressing human TRPV4, examples listed under heading 'Human IC50<50 nM'
[2] = Flp-In T-REx 293 cells stably expressing human TRPV4, compounds listed by potency bin (<10 nM Tables 96-1/96-2, <3 nM Table 97)

T1 sequence (Q9HBA0 whole entry): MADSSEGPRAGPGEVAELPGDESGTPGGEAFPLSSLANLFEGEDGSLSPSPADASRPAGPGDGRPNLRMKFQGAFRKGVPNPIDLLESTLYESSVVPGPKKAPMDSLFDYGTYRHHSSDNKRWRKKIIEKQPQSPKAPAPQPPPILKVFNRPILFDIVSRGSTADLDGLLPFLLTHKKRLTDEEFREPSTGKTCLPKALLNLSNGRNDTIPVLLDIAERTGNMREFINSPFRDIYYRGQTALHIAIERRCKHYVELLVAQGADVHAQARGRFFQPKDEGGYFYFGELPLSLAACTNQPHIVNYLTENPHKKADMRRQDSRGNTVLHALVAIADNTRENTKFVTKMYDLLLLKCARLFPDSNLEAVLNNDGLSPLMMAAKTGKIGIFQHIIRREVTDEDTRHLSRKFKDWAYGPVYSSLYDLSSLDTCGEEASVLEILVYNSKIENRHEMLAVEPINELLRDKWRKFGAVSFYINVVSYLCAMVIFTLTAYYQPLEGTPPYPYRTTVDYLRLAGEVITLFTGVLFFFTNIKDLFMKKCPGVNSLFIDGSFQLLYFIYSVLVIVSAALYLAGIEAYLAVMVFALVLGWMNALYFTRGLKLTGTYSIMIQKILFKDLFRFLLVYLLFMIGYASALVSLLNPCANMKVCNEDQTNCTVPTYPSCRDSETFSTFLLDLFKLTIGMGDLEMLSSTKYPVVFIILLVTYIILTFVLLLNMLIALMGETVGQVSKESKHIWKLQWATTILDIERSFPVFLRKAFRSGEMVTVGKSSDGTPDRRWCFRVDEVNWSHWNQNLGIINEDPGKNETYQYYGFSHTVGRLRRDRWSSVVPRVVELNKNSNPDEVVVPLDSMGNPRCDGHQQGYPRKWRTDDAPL

Row | IC50 [1] | IC50 [2] | SMILES
1 | < 50 nM | < 10 nM | O=C([C@H](O)c1cccc(C(F)(F)F)c1)N1CCCc2nc(C3(c4cccc(-c5ccc(N6CCC(c7ccccc7)CC6)nc5)c4)CC3)[nH]c(=O)c2C1 [42-87]
2 | < 50 nM |  | O=C(C(O)c1cccc(-c2cc(F)ccc2F)c1)N1CCc2nc(C3(c4ccccc4)CC3)[nH]c(=O)c2C1 (centres unmarked) [44-48]
3 | < 50 nM | < 10 nM | O=C([C@H](O)c1cccc(-c2ccc(Cl)c(C(F)(F)F)c2)c1)N1CCCc2nc(C3(c4cccc(Cl)c4)CC3)[nH]c(=O)c2C1 [50-23]
4 | < 50 nM | < 3 nM | O=C([C@H](O)c1cccc(C(F)(F)F)c1)N1CCc2nc(C3(c4cccc(-c5ccccc5)c4)CC3)[nH]c(=O)c2C1 [37-1]
5 | < 50 nM | < 10 nM | CC(C)c1cccc(C2(c3nc4c(c(=O)[nH]3)CN(C(=O)Cc3cccc(-c5cccc(Cl)c5)c3)CCC4)CC2)c1 [31-15]
6 | < 50 nM | < 3 nM | O=C([C@H](O)c1cccc(Cl)c1)N1CCc2nc(C3(c4cncc(C5CCCC5)c4)CC3)[nH]c(=O)c2C1 [25-1]
7 | < 50 nM |  | Cn1cc(-c2cccc(C3(c4nc5c(c(=O)[nH]4)CN(C(=O)[C@H](O)c4cccc(C(F)(F)F)c4)CCC5)CC3)c2)ccc1=O [42-38]
8 | < 50 nM | < 3 nM | N#Cc1cc(Cl)cc(-c2cccc(CC(=O)N3CCCc4nc(C5(c6cccc(Cl)c6)CC5)[nH]c(=O)c4C3)c2)c1 [17-119]
9 | < 50 nM | < 10 nM | O=C([C@H](O)c1cccc(-c2coc3ccccc23)c1)N1CCc2nc(C3(c4ccccc4)CC3)[nH]c(=O)c2C1 [44-112]
10 | < 50 nM | < 3 nM | O=C([C@H](O)c1cccc(C(F)(F)F)c1)N1CCCc2nc(C3(c4cccc(-c5cnsc5)c4)CC3)[nH]c(=O)c2C1 [42-1]
11 | < 50 nM | < 10 nM | O=C(Cc1cccc(-c2cccc(C(F)(F)F)c2)c1)N1CCCc2nc(C3(c4cc(-c5ccccc5)cs4)CC3)[nH]c(=O)c2C1 [18-28]
12 | < 50 nM | < 10 nM | O=C(C(O)c1cncc(-c2cccc(C(F)(F)F)c2)c1)N1CCc2nc(C3(c4ccccc4)CC3)[nH]c(=O)c2C1 (centres unmarked) [48-4]
13 | < 50 nM | < 10 nM | CC(C)c1cncc(C2(c3nc4c(c(=O)[nH]3)CN(C(=O)[C@H](O)c3cccc(-c5ccnc(C(F)(F)F)c5)c3)CCC4)CC2)c1 [55-9]
14 | < 50 nM |  | Cc1cccc(C(O)C(=O)N2CCCc3nc(C4(c5ccccc5)CC4)[nH]c(=O)c3C2)c1F (centres unmarked) [17-56]
15 | < 50 nM | < 10 nM | CC(C)c1cncc(C2(c3nc4c(c(=O)[nH]3)CN(C(=O)C(F)(F)c3cccc(Cl)c3F)CCC4)CC2)c1 [22-8]
16 | < 50 nM |  | Cc1csc(C2(c3nc4c(c(=O)[nH]3)CN(C(=O)[C@H](O)c3cccc(Cl)c3)CC4)CC2)c1 [6-20]
17 | < 50 nM | < 10 nM | O=C(Cc1cccc(OCc2ccccc2)c1)N1CCCc2nc(C3(c4cccc(Cl)c4)CC3)[nH]c(=O)c2C1 [17-122]
18 | < 50 nM | < 10 nM | O=C(C(O)c1cccc(-c2ccnc(C(F)(F)F)c2)c1)N1CCCc2nc(C3(c4ccccc4)CC3)[nH]c(=O)c2C1 (centres unmarked) [49-5]
19 | < 50 nM | < 10 nM | O=C([C@H](O)c1cccc(C(F)(F)F)c1)N1CCCc2nc(C3(c4cccc(Oc5ccccc5)c4)CC3)[nH]c(=O)c2C1 [17-72]

Row | IC50 [1] | IC50 [2] | SMILES
20 | < 50 nM | < 3 nM | COc1ccc(C(=O)N2CC=C(c3cccc(C4(c5nc6c(c(=O)[nH]5)CN(C(=O)[C@H](O)c5cccc(C(F)(F)F)c5)CCC6)CC4)c3)CC2)cc1OC1CCCC1 [42-82]
21 | < 50 nM | < 10 nM | CC(C)c1cncc(C2(c3nc4c(c(=O)[nH]3)CN(C(=O)C(O)c3cccc(-c5cccc(OC(F)(F)F)c5)c3)CCC4)CC2)c1 (centres unmarked) [55-2]
22 | < 50 nM |  | CC(C)c1cccc(C2(c3nc4c(c(=O)[nH]3)CN(C(=O)C(O)c3cccc(SC(F)(F)F)c3)CCC4)CC2)c1 (centres unmarked) [17-44]
23 | < 50 nM |  | O=C([C@H](O)c1cccc(Cl)c1)N1CCCc2nc(C3(c4ccccc4)CC3)[nH]c(=O)c2C1 [10-7]
24 | < 50 nM |  | CC(=O)c1cccc(C2(c3nc4c(c(=O)[nH]3)CN(C(=O)[C@H](O)c3cccc(C(F)(F)F)c3)CCC4)CC2)c1 [60-1, (R)-2-(1-(3-acetylphenyl)cyclopropyl)-6-(2-hydroxy-2-(3-(trifluoromethyl)phenyl)acetyl)-3,5,6,7,8,9-hexahydro-4H-pyrimido[5,4-c]azepin-4-one]
25 | < 50 nM | < 3 nM | O=C(N1CCCc2nc(C3(c4cccc(F)c4)CC3)[nH]c(=O)c2C1)C(F)(F)c1cccc(Cl)c1 [20-5]
26 | < 50 nM | < 10 nM | O=C([C@H](O)c1cccc(C(F)(F)F)c1)N1CCCc2nc(C3(c4cccc(-c5cnc(-c6ccccc6)o5)c4)CC3)[nH]c(=O)c2C1 [17-95]
27 | < 50 nM | < 3 nM | CC1(C)CCC(c2cccc(C3(c4nc5c(c(=O)[nH]4)CN(C(=O)[C@H](O)c4cccc(C(F)(F)F)c4)CCC5)CC3)c2)CC1 [31-3]
28 | < 50 nM | < 10 nM | CC(C)(C)c1cccc(C(O)C(=O)N2CCCc3nc(C4(c5cccs5)CC4)[nH]c(=O)c3C2)c1 (centres unmarked) [18-7]
29 | < 50 nM |  | CC(C)(C)c1cccc(-c2cccc(C(O)C(=O)N3CCc4nc(C5(c6ccccc6)CC5)[nH]c(=O)c4C3)n2)c1 (centres unmarked) [48-9]
30 | < 50 nM | < 3 nM | O=C([C@H](O)c1cccc(-c2cccc(OC(F)(F)F)c2)c1)N1CCc2nc(C3(c4ccccc4)CC3)[nH]c(=O)c2C1 [44-72]
31 | < 50 nM | < 10 nM | O=C(Cc1cccc(-c2ccc(Cl)cc2)c1)N1CCCc2nc(C3(c4ccccc4)CC3)[nH]c(=O)c2C1 [17-135]
32 | < 50 nM | < 10 nM | O=C(Cc1cccc(-c2cccc(C(F)(F)F)c2)c1)N1CCCc2nc(C3(c4cccc(-c5csc6ccccc56)c4)CC3)[nH]c(=O)c2C1 [17-125]
33 | < 50 nM | < 10 nM | CC(C)(C)c1cccc(-c2cccc([C@@H](O)C(=O)N3CCc4nc(C5(c6cccc(Cl)c6)CC5)[nH]c(=O)c4C3)c2)c1 [45-2]
34 | < 50 nM | < 10 nM | O=C([C@H](O)c1cccc(Cl)c1)N1CCCc2nc(C3(c4cccc(-c5ccc(Cl)cc5)c4)CC3)[nH]c(=O)c2C1 [40-7]
35 | < 50 nM |  | CC(C)c1cccc(C2(c3nc4c(c(=O)[nH]3)CN(C(=O)C(O)c3cccc(-c5cccc(C(F)(F)F)c5)c3)CCC4)CC2)c1 (centres unmarked) [17-45]
36 | < 50 nM | < 10 nM | O=C(C(O)c1cccc(OCc2ccccc2)c1)N1CCCc2nc(C3(c4cccc(Cl)c4)CC3)[nH]c(=O)c2C1 (centres unmarked) [17-13]
37 | < 50 nM | < 10 nM | O=C([C@H](O)c1cccc(C(F)(F)F)c1)N1CCc2nc(C3(c4cccc(C5CCCC5)c4)CC3)[nH]c(=O)c2C1 [27-2]
38 | < 50 nM |  | CC(C)c1cccc(C2(c3nc4c(c(=O)[nH]3)CN(C(=O)C(O)c3cccc(-c5cccc(OC(F)(F)F)c5)c3)CCC4)CC2)c1 (centres unmarked) [17-49]

Row | IC50 [1] | IC50 [2] | SMILES
39 | < 50 nM | < 10 nM | N#Cc1ccc(-c2cccc(C3(c4nc5c(c(=O)[nH]4)CN(C(=O)[C@H](O)c4cccc(C(F)(F)F)c4)CCC5)CC3)c2)cc1C#N [42-68]
40 | < 50 nM | < 3 nM | O=C([C@H](O)c1cccc(-c2ccnc(C(F)(F)F)c2)c1)N1CCCc2nc(C3(c4cccc(Cl)c4)CC3)[nH]c(=O)c2C1 [50-11]
41 | < 50 nM | < 3 nM | O=C(C(O)c1cccc(-c2cccc(C(F)(F)F)c2)c1)N1CCCc2nc(C3(c4cncc(-c5ccccc5)c4)CC3)[nH]c(=O)c2C1 (centres unmarked) [56-2]
42 | < 50 nM |  | O=C(C(O)c1cccc(OCc2ccccc2)c1)N1CCc2nc(C3(c4ccccc4)CC3)[nH]c(=O)c2C1 (centres unmarked) [14-111]
43 | < 50 nM | < 10 nM | CC(C)(C)c1cccc(-c2cccc(C(O)C(=O)N3CCCc4nc(C5(c6ccccc6)CC5)[nH]c(=O)c4C3)c2)c1 (centres unmarked) [49-10]
44 | < 50 nM | < 10 nM | O=C([C@H](O)c1cccc(-c2ccc(Cl)c(OC(F)(F)F)c2)c1)N1CCCc2nc(C3(c4ccccc4)CC3)[nH]c(=O)c2C1 [49-41]
45 | < 50 nM |  | O=C(C(O)c1cccc(-c2cc(F)cc(F)c2)c1)N1CCc2nc(C3(c4ccccc4)CC3)[nH]c(=O)c2C1 (centres unmarked) [44-45]
46 | < 50 nM |  | CN(C(=O)c1csc(C2(c3nc4c(c(=O)[nH]3)CN(C(=O)[C@H](O)c3cccc(C(F)(F)F)c3)CCC4)CC2)c1)C(C)(C)C [59-19]
47 | < 50 nM | < 10 nM | O=C([C@H](O)c1cccc(C(F)(F)F)c1)N1CCCc2nc(C3(c4cc(C5CCOCC5)cs4)CC3)[nH]c(=O)c2C1 [30-7]
48 | < 50 nM | < 3 nM | CN(C)c1ccc(-c2cccc(C3(c4nc5c(c(=O)[nH]4)CN(C(=O)[C@H](O)c4cccc(C(F)(F)F)c4)CCC5)CC3)c2)cc1 [42-11]
49 | < 50 nM |  | O=C(C(O)c1cccc(-c2ccc(Cl)cc2)c1)N1CCc2nc(C3(c4ccccc4)CC3)[nH]c(=O)c2C1 (centres unmarked) [44-36]
50 | < 50 nM |  | O=C([C@H](O)c1cccc(C(F)(F)F)c1)N1CCc2nc(C3(c4cc(C5CCOCC5)cs4)CC3)[nH]c(=O)c2C1 [26-2]
51 | < 50 nM | < 10 nM | O=C([C@H](O)c1cccc(-c2cc(Cl)ccc2Cl)c1)N1CCc2nc(C3(c4ccccc4)CC3)[nH]c(=O)c2C1 [44-108]
52 | < 50 nM | < 10 nM | O=C([C@H](O)c1cccc(-c2cccc(OCc3ccccc3)c2)c1)N1CCCc2nc(C3(c4ccccc4)CC3)[nH]c(=O)c2C1 [49-26]
53 | < 50 nM |  | O=C([C@H](O)c1cccc(C(F)(F)F)c1)N1CCCc2nc(C3(c4cccc(-c5ccc(CN6CCCC6)cc5)c4)CC3)[nH]c(=O)c2C1 [42-52]
54 | < 50 nM | < 3 nM | CC(C)c1csc(C2(c3nc4c(c(=O)[nH]3)CN(C(=O)C(O)c3cccc(Cl)c3F)CC4)CC2)c1 (centres unmarked) [15-27]
55 | < 50 nM | < 10 nM | O=C(Cc1cccc(-c2cccc(Cl)c2)c1)N1CCCc2nc(C3(c4ccccc4)CC3)[nH]c(=O)c2C1 [17-136]
56 | < 50 nM |  | CC(=O)N1CCC(c2csc(C3(c4nc5c(c(=O)[nH]4)CN(C(=O)[C@H](O)c4cccc(C(F)(F)F)c4)CCC5)CC3)c2)CC1 [30-13]
